For one test, the target named is ROCK2 (Homo sapiens (Human), UniProt O75116). Put plainly: ROCK2 kinase inhibition assay (peptide phosphorylation, LABCHIP 3000). Conditions: 7 μM ATP, 2.5 nM ROCK2, 3 hours at 25° C. Type of test: biochemical.
The next test deals with K562 cell line. Briefly: Cell viability assay ([…]-GLO), K562. It counts as cell-based. Conditions: Homo sapiens; K562 (does not express ITD-FLT3), 72 hours treatment. As to the method:
Cell viability in the presence of varying concentrations of the above listed compounds at different time points was used to assess cytotoxicity and the effect of the compounds on cell proliferation.
Cell viability was measured by the […]-GlO® cell viability assay from Promega (Madison, Wis.). The […]-GlO Luminescent Cell Viability Assay is a homogeneous method to determine the number of viable cells in culture based on quantitation of the ATP present, which signals the presence of metabolically active cells. Following treatment, […]-GlO® is added to treatment wells and incubated at 37° C. Luminescence values were measured at using a Molecular Devices Spectramax microplate reader.
Cells were grown to 70% confluency, trypsinized, counted, and seeded in 96 well flat-bottom plates at a final concentration of 2.5×10^3-5×10^3 cells/well (Day 0). Cells were allowed to incubate in growth media for 24 hours. Treatment with the test agents or standard agents began on Day 1 and continued for 72 hours. At the 72-hour time point, treatment containing media was removed. Viable cell numbers were quantified by the […]-GLO® cell viability assay as described above. Results from these studies were used to calculate an IC50 value (concentration of drug that inhibits cell growth by 50 percent of control) for each compound.
For single agent and combination studies, data from each experiment was collected and expressed as % Cell Growth using the following calculation: % Cell Growth=(ftest/fvehicle)×100
Where ftest is the luminescence of the tested sample, and fvehicle is the luminescence of the vehicle in which the drug is dissolved. Dose response graphs and IC50 values were generated using Prism 6 software (GraphPad) using the following equation: Y=(Top−Bottom)/(1+10^((logIC50-X)−HillSlope))
Where X is the logarithm of the concentration and Y is the response. Y starts at the Bottom and goes to the Top with a sigmoid shape.
The experiments also evaluated the selectivity of the compounds for inhibiting growth of cancer cells carrying a mutation in the Flt3 gene. The MV411 cell line expresses the mutant allele of Flt3 with internal tandem duplications (ITD) of the gene. See Quentmeier et al., “FLT3 Mutations in Acute Myeloid Leukemia Cell Lines,” Leukemia 17(1), 2003, 120-124. […] See Grafone et al., “Monitoring of FLT3 Phosphorylation Status and Its Response to Drugs By Flow Cytometry in AML Blast Cells,” Hematol Oncol. 26(3), 2008, 159-166.

The subject of the next test is MV411 cell line. Put plainly: Cell viability assay ([…]-GLO), MV411. Type of test: cell-based. The conditions noted are these: for IC50: Homo sapiens, MV4-11, MV411 (ITD-FLT3+), 72 hours treatment; for FLT3-ITD+ Selectivity (K562/MV411): ratio K562/MV411.

ROCK2, sequence (O75116 whole entry, species assumed): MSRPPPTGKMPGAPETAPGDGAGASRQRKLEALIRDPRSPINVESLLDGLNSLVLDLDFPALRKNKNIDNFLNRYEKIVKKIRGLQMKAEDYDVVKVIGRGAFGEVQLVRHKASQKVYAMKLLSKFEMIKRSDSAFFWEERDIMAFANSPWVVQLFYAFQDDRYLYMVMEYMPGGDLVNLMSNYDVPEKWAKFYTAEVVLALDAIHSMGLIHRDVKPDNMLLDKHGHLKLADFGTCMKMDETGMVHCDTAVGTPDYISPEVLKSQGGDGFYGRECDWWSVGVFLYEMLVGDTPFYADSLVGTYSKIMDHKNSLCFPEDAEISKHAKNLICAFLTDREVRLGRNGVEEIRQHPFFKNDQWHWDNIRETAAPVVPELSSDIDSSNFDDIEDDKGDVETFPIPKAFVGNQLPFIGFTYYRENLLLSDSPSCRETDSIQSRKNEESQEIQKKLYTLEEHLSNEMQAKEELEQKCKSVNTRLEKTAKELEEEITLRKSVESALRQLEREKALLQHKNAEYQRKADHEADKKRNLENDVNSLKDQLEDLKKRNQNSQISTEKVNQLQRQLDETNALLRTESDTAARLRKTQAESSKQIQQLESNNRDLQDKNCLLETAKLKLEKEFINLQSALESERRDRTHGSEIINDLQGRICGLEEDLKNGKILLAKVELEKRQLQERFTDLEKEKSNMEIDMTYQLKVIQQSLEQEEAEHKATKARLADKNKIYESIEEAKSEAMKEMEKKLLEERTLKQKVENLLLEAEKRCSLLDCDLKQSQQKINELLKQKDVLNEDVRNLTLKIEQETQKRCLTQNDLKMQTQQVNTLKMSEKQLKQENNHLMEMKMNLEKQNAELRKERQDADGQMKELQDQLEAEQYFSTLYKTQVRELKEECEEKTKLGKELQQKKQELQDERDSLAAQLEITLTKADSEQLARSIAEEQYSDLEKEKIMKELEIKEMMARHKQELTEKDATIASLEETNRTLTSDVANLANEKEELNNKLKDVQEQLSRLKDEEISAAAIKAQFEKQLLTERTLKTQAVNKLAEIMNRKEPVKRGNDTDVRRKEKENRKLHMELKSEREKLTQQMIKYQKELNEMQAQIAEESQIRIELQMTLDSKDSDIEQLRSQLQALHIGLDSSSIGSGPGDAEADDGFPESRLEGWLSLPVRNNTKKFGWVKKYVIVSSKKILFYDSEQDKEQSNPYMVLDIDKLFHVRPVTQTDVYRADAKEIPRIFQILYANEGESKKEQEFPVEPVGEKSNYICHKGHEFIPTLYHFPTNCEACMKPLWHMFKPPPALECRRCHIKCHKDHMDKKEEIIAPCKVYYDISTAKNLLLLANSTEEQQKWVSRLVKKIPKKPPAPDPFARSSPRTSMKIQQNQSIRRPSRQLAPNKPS
Protocol for MV411 cell line: Cell viability was measured by the […] -GlO® cell viability assay from Promega (Madison, Wis.). The […] -GlO Luminescent Cell Viability Assay is a homogeneous method to determine the number of viable cells in culture based on quantitation of the ATP present, which signals the presence of metabolically active cells. Following treatment, […] -GlO® is added to treatment wells and incubated at 37° C. Luminescence values were measured at using a Molecular Devices Spectramax microplate reader.
Protocol for ROCK2: The peptide is phosphorylated by the protein kinase ROCK1 or ROCK2. The ROCK1 or ROCK2 enzyme, substrate, and cofactors (ATP and Mg^2+) are combined in a well of a microtiter plate and incubated for 3 hours at 25° C. in the presence or absence of an inhibitor compound. At the end of the incubation, the reaction is quenched by the addition of an EDTA-containing buffer. The substrate and product are separated and quantified electrophoretically using the microfluidic-based LABCHIP® 3000 Drug Discovery System from Caliper Life Sciences (Hopkinton, Mass.).
The components of the assay mixture are:
10 μM Sodium Orthovanadate
10 LM Beta-Glycerophosphate
5 μM ATP (for ROCK1) or 7 μM ATP (for ROCK2)
3 nM ROCK1 or 2.5 nM ROCK2 enzyme
Substrate and product peptides present in each sample are separated electrophoretically using the LABCHIP® 3000 capillary electrophoresis instrument. […] Change in the relative fluorescence intensity of the substrate and product peaks is the parameter measured reflecting enzyme activity. Capillary electrophoregramms (RDA acquisition files) are analyzed using HTS Well Analyzer software (Caliper Life Sciences, Hopkinton, Mass.). The kinase activity in each sample is determined as the product to sum ratio (PSR): P/(S+P), where P is the peak height of the product peptide and S is the peak height of the substrate peptide. For each compound, enzyme activity is measured at various concentrations (12 concentrations of compound spaced by 3× dilution intervals). Negative control samples (0%-inhibition in the absence of inhibitor) and positive control samples (100%-inhibition in the presence of 20 mM EDTA) are assembled in replicates of four and are used to calculate %-inhibition values for each compound at each concentration. Percent inhibition (Pinh) is determined using the following equation: Pinh=(PSRO %−PSRinh)/(PSRO %−PSR100%)*100
where PSRinh is the product sum ratio in the presence of inhibitor, PSRO % is the average product sum ratio in the absence of inhibitor, and PSR100% is the average product sum ratio in 100%-inhibition control samples. The IC50 values of inhibitors are determined by fitting the inhibition curves (Pinh versus inhibitor concentration) by the 4-parameter sigmoidal dose-response model using XLfit 4 software (IBDS).

One may read the IC50 as the concentration at which inhibition is half-maximal. On to `COc1ccc(C(=O)N[C@H](C)c2cccc(C(=O)Nc3nc4c(s3)CN(C)CC4)c2)cc1C` [Compound 17], for which the IC50 was 22.5 nM against ROCK2, more than 100000 nM with K562 cell line and 13500 nM in the test with MV411 cell line. In addition, the “FLT3-ITD+ Selectivity (K562/MV411)” value in the test on MV411 cell line is more than 7.
Regarding `C[C@@H](NC(=O)c1ccc(-c2ccncc2)cc1)c1cccc(C(=O)NCc2ccc(CN(C)C)cc2)c1` [Compound 39], the IC50 against ROCK2 amounted to 0.3 nM; in the test with K562 cell line, 9400 nM; with MV411 cell line, 10 nM. Besides, the “FLT3-ITD+ Selectivity (K562/MV411)” value in the test with MV411 cell line is on record as 940.
In the case of `CC(C)N1CCC(CNC(=O)c2cccc([C@@H](CO)NC(=O)c3ccc(-c4ccncc4)cc3)c2)CC1` [Compound 56], the IC50 on ROCK2 is 0.31 nM; in the test with K562 cell line, more than 100000 nM; with MV411 cell line, 90 nM. The “FLT3-ITD+ Selectivity (K562/MV411)” value in the test on MV411 cell line is listed as more than 1122.
For the compound `CC1(NC(=O)c2cccc([C@@H](CO)NC(=O)c3ccc(-c4ccncc4)cc3)c2)CCC1` [Compound 71], the IC50 against ROCK2 came to 9 nM; in the test on K562 cell line it was 34000 nM; in the test with MV411 cell line it was 910 nM. For the same compound, in the test on MV411 cell line, the “FLT3-ITD+ Selectivity (K562/MV411)” value is given as 37.
On to `COc1ccc(NC(=O)c2cccc([C@@H](CO)NC(=O)c3ccc(-c4ccncc4)cc3)c2)cn1` [Compound 93], for which the values for the IC50 on ROCK2, with K562 cell line and in the test on MV411 cell line were 0.51 nM, 85000 nM and 90 nM, respectively. Besides, the “FLT3-ITD+ Selectivity (K562/MV411)” value with MV411 cell line is given as 935.
The like results for `CC(NC(=O)c1ccc(-c2ccncc2)cc1)c1cccc(OCC(=O)Nc2ccc3c(c2)CN(C)CC3)c1` (stereo not drawn) [Compound 16] were, in that order, 3.6 nM, 30000 nM, 1500 nM and 20.
On to `O=C(NC1CCCC1)c1cccc([C@@H](CO)NC(=O)c2ccc(-c3cn[nH]c3)cc2F)c1` [Compound 95], for which the figures for the IC50 against ROCK2, with K562 cell line and in the test with MV411 cell line were 2.34 nM, 76000 nM and 890 nM, respectively. In addition, the “FLT3-ITD+ Selectivity (K562/MV411)” value in the test on MV411 cell line is 86.
`O=C(Nc1ccccc1)c1cccc([C@@H](CO)NC(=O)c2ccc(-c3ccncc3)cc2)c1` [Compound 9]: the IC50 was 1.7 nM at ROCK2, 35000 nM with K562 cell line and 800 nM with MV411 cell line. In addition, the “FLT3-ITD+ Selectivity (K562/MV411)” value in the test with MV411 cell line amounted to 47.
The like results for `CN1CCC(C)(CNC(=O)c2cccc([C@@H](CO)NC(=O)c3ccc(-c4ccncc4)cc3)c2)CC1` [Compound 57] were, in that order, 0.63 nM, more than 100000 nM, 90 nM and more than 1122.
Compound `CN1CCc2ccc(NC(=O)c3cccc([C@@H](CO)NC(=O)c4ccc(-c5cccnc5)cc4)c3)cc2C1` [Compound 44] returned a half-maximal inhibitory concentration (IC50) at ROCK2 of 240 nM.
For the compound `CN1CCC(NC(=O)c2cccc([C@@H](CO)NC(=O)c3ccc(-c4ccncc4)cc3)c2)CC1` [Compound 50], the IC50 is 0.33 nM against ROCK2, more than 100000 nM in the test on K562 cell line and 100 nM in the test with MV411 cell line. Also, the “FLT3-ITD+ Selectivity (K562/MV411)” value in the test with MV411 cell line is more than 1010.
Consider `O=C(NCC1CCCC1)c1cccc([C@@H](CO)NC(=O)c2ccc(-c3ccncc3)cc2)c1` [Compound 89], for which the half-maximal inhibitory concentration (IC50) on ROCK2 came to 0.72 nM; with K562 cell line, 66000 nM; in the test on MV411 cell line, 280 nM. In the test with MV411 cell line, the “FLT3-ITD+ Selectivity (K562/MV411)” value is 236.
Turning to `CN1CCOc2ccc(NC(=O)c3cccc([C@@H](CO)NC(=O)c4ccc(-c5ccncc5)cc4)c3)cc2C1` [Compound 29], in the test on MV411 cell line, the IC50 was found to be 65100 nM.
With `Cc1cc(-c2cn[nH]c2)ccc1C(=O)N[C@H](CO)c1cccc(C(=O)NC2CCCC2)c1` [Compound 96], the IC50 stood at 53.1 nM at ROCK2, 101000 nM in the test with K562 cell line and 710 nM with MV411 cell line. Moreover, in the test with MV411 cell line, the “FLT3-ITD+ Selectivity (K562/MV411)” value stood at 142.
The like results for `O=C(NC1CCN(C2CC2)CC1)c1cccc([C@@H](CO)NC(=O)c2ccc(-c3ccncc3)cc2)c1` [Compound 54] were, in that order, 0.54 nM, more than 100000 nM, 70 nM and more than 1443.
Regarding `COCC1(NC(=O)c2cccc([C@@H](CO)NC(=O)c3ccc(-c4ccncc4)cc3)c2)CCCC1` [Compound 67], the IC50 against ROCK2 was 9.1 nM; in the test on K562 cell line, 41000 nM; with MV411 cell line it was 2670 nM. Moreover, the “FLT3-ITD+ Selectivity (K562/MV411)” value in the test on MV411 cell line was determined as 15.
With `O=C(NC1CCCC1)c1cccc([C@@H](CO)NC(=O)c2cc(-c3ccncc3)n[nH]2)c1` [Compound 61], the IC50 against ROCK2 was 2.12 nM; in the test with K562 cell line it was more than 100000 nM; in the test on MV411 cell line, 2500 nM. Also, the “FLT3-ITD+ Selectivity (K562/MV411)” value with MV411 cell line is more than 40.
The like results for `O=C(NCc1cccc(F)c1)c1cccc([C@@H](CO)NC(=O)c2ccc(-c3ccncc3)cc2)c1` [Compound 75] were, in that order, 0.5 nM, 33000 nM, 160 nM and 207.
In the same order, the values of `COC1(CNC(=O)c2cccc([C@@H](CO)NC(=O)c3ccc(-c4ccncc4)cc3)c2)CCC1` [Compound 73] are 0.6 nM, 27000 nM, 80 nM and 337.
Regarding `CN1CCc2ccc(NC(=O)c3cccc([C@@H](CO)NC(=O)c4ccc(-c5ccncc5)cc4)c3)cc2C1=O` [Compound 27], the IC50 turned out to be 0.39 nM against ROCK2, 25000 nM in the test with K562 cell line and 4400 nM in the test on MV411 cell line. In the test on MV411 cell line, the “FLT3-ITD+ Selectivity (K562/MV411)” value amounted to 6.
In the case of `COc1ccc(C(=O)N[C@H](C)c2cccc(C(=O)NCC3CCN(C(C)C)CC3)c2)cc1C` [Compound 68], at ROCK2, the IC50 was determined as 104 nM.
On the same count and under the same terms, under `CN1CCc2ccc(NC(=O)c3cccc([C@@H](CO)NC(=O)c4ccc(-c5ccn[nH]5)cc4)c3)cc2C1` [Compound 43] stands 9.3 nM.
As for `Cc1c[nH]c2nccc(Oc3c(F)cc(Nc4cc(Cl)nc(N)n4)cc3F)c12` [Compound A, reference compound], the figures for the IC50 with K562 cell line and in the test with MV411 cell line were 800 nM and 700 nM, respectively.
As to `CN1CCc2ccc(NC(=O)c3cccc([C@@H](CO)NC(=O)c4cccc(-c5ccn[nH]5)c4)c3)cc2C1` [Compound 42], on ROCK2, the concentration for half-maximal inhibition (IC50) came to 72.6 nM.
For the compound `O=C(NC1CCCC1)c1cccc([C@@H](CO)NC(=O)c2cccc(-c3cn[nH]c3)c2)c1` [Compound 83], the IC50 in the test on K562 cell line was more than 100000 nM. In the test with MV411 cell line, the half-inhibitory concentration (IC50) worked out at 3600 nM and the “FLT3-ITD+ Selectivity (K562/MV411)” value is more than 28.
With `COc1cccc(CN(CCN(C)C)C(=O)c2cccc([C@@H](CO)NC(=O)c3ccc(-c4ccncc4)cc3)c2)c1` [Compound 25], the IC50 in the test on MV411 cell line came out at 18900 nM.
Compound `CN1CCc2ccc(NC(=O)c3cccc([C@@H](CO)NC(=O)c4cccc(-c5ccncc5)c4)c3)cc2C1` [Compound 41] had an IC50 at ROCK2 of 6.53 nM.
For the compound `O=C(NC1CCCC1)c1cccc([C@@H](CO)NC(=O)c2cccc(-c3cn[nH]c3)c2)c1` [Compound 106], the IC50 against ROCK2 amounted to 20 nM.
Consider `COCCOc1cccc(CNC(=O)c2cccc([C@@H](CO)NC(=O)c3ccc(-c4ccncc4)cc3)c2)c1` [Compound 34], for which the IC50 against ROCK2 was 0.69 nM.
In the case of `COc1ccc(C(=O)N[C@H](CO)c2cccc(C(=O)Nc3ccc4c(c3)CN(C)CC4)c2)cc1C` [Compound 19], the IC50 in the test on K562 cell line was 44000 nM. Moreover, in the test with MV411 cell line, the IC50 was 13200 nM and the “FLT3-ITD+ Selectivity (K562/MV411)” value is recorded as 3.
Turning to `CN(C(=O)c1ccc(-c2ccncc2)cc1)[C@H](CO)c1cccc(C(=O)NC2CCCC2)c1` [Compound 45], the IC50 against ROCK2 amounted to 257 nM.
With `CN(C(=O)c1cccc([C@@H](CO)NC(=O)c2ccc(-c3ccncc3)cc2)c1)C1CC1` [Compound 38], the results for the IC50 at ROCK2 and in the test with MV411 cell line were 56 nM and 20000 nM, respectively.
`CN(C)Cc1cccc(CNC(=O)c2cccc([C@@H](CO)NC(=O)c3ccc(-c4ccncc4)cc3)c2)c1` [Compound 33] came in with an IC50 against ROCK2 of 0.38 nM.
As for `CN1CCc2ccc(NC(=O)c3cccc([C@@H](CO)NC(=O)c4ccc(-c5ccncc5)cn4)c3)cc2C1` [Compound 37], the IC50 against ROCK2 came out at 3 nM; in the test with MV411 cell line it was 1700 nM.
For `C[C@@H](NC(=O)c1ccc(-c2ccncc2)cc1)c1cccc(C(=O)NCC2CCC(F)(F)CC2)c1` [Compound 40], the IC50 against ROCK2 was found to be 0.41 nM; in the test with MV411 cell line, 3400 nM.
As to `C[C@H](c1cccc(C(=O)NC2CCCC2)c1)N(CCN(C)C)C(=O)c1ccc(-c2ccncc2)cc1` [Compound 98], the IC50 at ROCK2 is 0.23 nM.
On ROCK2, `CN1Cc2ccc(NC(=O)c3cccc([C@@H](CO)NC(=O)c4ccc(-c5ccncc5)cc4)c3)cc2C1` [Compound 8] displayed an IC50 of 1.3 nM.

For the origin of these results see patent US10738007B2, “Amide compounds as kinase inhibitors, compositions and methods of treatment” (TRANSLATIONAL DRUG DEVELOPMENT, LLC, priority 2016, dated 2020).
